Converted amounts (≈) assume the structure as drawn.
Assays:
S. aureus 29213 = experiment: Antibacterial assay, standard microtitration (MIC); format: cell-based; settings: Gram positive; for MIC: Staphylococcus aureus, 29213, read-out: Minimum Inhibitory Concentrations S. aureus 29213
Protocol: (§1) Antibacterial assay: The compounds of the present invention were tested against an assortment of Gram negative and Gram positive organisms using standard microtitration techniques (Cohen, et al., Antimicrob. Agents Chemother., 1985;28:766; Heifetz, et al., Antimicrob. Agents Chemother., 1974;6:124).

E. coli MC4100 = experiment: Antibacterial assay, standard microtitration (MIC); format: cell-based; settings: Gram negative; for MIC: Escherichia coli, MC4100, read-out: Minimum Inhibitory Concentrations E. coli MC4100
Protocol: as §1

E. coli B90 = experiment: Antibacterial assay, standard microtitration (MIC); format: cell-based; settings: Gram negative; for MIC: Escherichia coli, B90, read-out: Minimum Inhibitory Concentrations E. coli B90
Protocol: as §1

S. pyogenes C203 = experiment: Antibacterial assay, standard microtitration (MIC); format: cell-based; settings: Gram positive; for MIC: Streptococcus pyogenes, C203, read-out: Minimum Inhibitory Concentrations S. pyogenes C203
Protocol: as §1

E. coli Tol C = experiment: Antibacterial assay, standard microtitration (MIC); format: cell-based; settings: for MIC: Escherichia coli, read-out: Minimum Inhibitory Concentrations E. coli Tol C; for Minimum Inhibitory Concentrations E. coli Tol C: Gram negative
Protocol: as §1

E. coli Topoisomerase IV = target: T1, E. coli Topoisomerase IV (Escherichia coli, UniProt P0AFI2+P20083); experiment: Topoisomerase IV k-DNA decatenation assay; format: biochemical; settings: k-DNA decatenation, 10 minutes at 37° C.; read-out: DNA TopIV IC50
T1 construct: made in house; host or cells: E. coli overexpressing strains
Protocol: Topoisomerase IV assay: Topoisomerase IV was purified from E. coli overexpressing strains, and the compounds were assayed according to literature conditions (Journal of Biological Chemistry, 1993;268(32):24481). The k-DNA decatenation assay was used. Briefly, reactions were performed in buffer R (40 mM Tris-HCl (pH 7.5),6 mM MgCl2, 10 mM DTT, 100 mM potassium glutamate, 40 μM ATP, 50 μg/mL bovine serum albumin, 10 mM NaCl). Two-tenths microgram of kinetoplast DNA (k-DNA; TopoGen, Columbus, Ohio) was incubated with 5 ng of E. coli Topoisomerase IV in the presence or absence of test compounds for 10 minutes at 37° C. Subsequently, one-tenth volume of 10×gel loading buffer (0.3% bromophenol blue, 16% Ficoll, 10 mM Na2HPO4) was added, and samples were loaded onto horizontal 0.8% agarose gels prepared with TBE buffer and containing 0.05 μg/mL of ethidium bromide. Electrophoresis was at 70 V for 2 to 4 hours. Gels were then examined by exposure to UV light. The concentration of drug inhibiting 50% of the decantenating activity of Topoisomerase IV is given as an IC50 and recorded in Table 2.

E. coli gyrase = target: T2, E. coli gyrase (Escherichia coli, UniProt P0AES4+P0AES6); experiment: DNA gyrase supercoiling inhibition assay; format: biochemical; settings: supercoiling of relaxed pBR322, 30 minutes at 37° C.; read-out: Gyrase IC50
T2 construct: purchased Lucent, Ltd., Leicester, UK
Protocol: DNA gyrase assay: The effects of test agents on the activity of DNA gyrase was determined by the supercoiling inhibition assay, following reaction conditions recommended by the enzyme supplier (Lucent, Ltd., Leicester, UK), as follows. Reactions were performed in buffer G (35 mM Tris-HCl (pH 7.5), 24 mM KCl, 4 mM MgCl2, 2 mM DTT, 1.8 mM spermidine, 1 mM ATP, 0.1 mg/mL bovine serum albumin). 0.25 μg of relaxed plasmid pBR322 (Lucent, Ltd., Leicester, UK) was reacted with 1 U E. coli gyrase (Lucent, Ltd., Leicester, UK), in the absence or presence of drugs, for 30 minutes at 37° C. Reactions were stopped by the addition of SDS and proteinase K to respective final concentrations of 1% and 0.5 mg/mL. After an additional 30 minutes at 37° C., one-tenth volume of 10×loading buffer (0.3% bromophenol blue, 16% Ficoll, 10 mM Na2HPO4) was added, and reactions were loaded onto agarose gels and electrophoresed as described above for intercalation assays. The concentration of drug inhibiting 50% of the supercoiling activity of DNA gyrase is given as an IC50 and recorded in Table 2.

B. subtilis RB1 = experiment: Antibacterial assay, standard microtitration (MIC); format: cell-based; settings: Bacillus subtilis, Gram positive, read-out: Minimum Inhibitory Concentrations B. subtilis RB1
Protocol: as §1

T1 sequence (P20083 whole entry): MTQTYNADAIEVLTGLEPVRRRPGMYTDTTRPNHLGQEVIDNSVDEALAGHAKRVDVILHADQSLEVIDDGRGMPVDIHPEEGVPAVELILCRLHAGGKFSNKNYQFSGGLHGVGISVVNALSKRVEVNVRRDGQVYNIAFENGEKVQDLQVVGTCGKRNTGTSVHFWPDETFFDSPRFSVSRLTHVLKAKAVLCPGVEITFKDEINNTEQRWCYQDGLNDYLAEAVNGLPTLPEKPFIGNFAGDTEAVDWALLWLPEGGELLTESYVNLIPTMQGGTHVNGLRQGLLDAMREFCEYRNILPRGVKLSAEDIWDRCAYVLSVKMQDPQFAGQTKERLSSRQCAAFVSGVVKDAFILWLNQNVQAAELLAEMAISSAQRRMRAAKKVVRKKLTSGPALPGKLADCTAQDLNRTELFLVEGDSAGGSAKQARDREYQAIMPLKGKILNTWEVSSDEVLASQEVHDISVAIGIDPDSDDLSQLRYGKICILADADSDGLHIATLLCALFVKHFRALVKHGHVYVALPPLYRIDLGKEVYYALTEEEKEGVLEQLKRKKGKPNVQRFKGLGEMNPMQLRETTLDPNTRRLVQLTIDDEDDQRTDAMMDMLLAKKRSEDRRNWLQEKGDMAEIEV
T1 sequence (P0AFI2 whole entry): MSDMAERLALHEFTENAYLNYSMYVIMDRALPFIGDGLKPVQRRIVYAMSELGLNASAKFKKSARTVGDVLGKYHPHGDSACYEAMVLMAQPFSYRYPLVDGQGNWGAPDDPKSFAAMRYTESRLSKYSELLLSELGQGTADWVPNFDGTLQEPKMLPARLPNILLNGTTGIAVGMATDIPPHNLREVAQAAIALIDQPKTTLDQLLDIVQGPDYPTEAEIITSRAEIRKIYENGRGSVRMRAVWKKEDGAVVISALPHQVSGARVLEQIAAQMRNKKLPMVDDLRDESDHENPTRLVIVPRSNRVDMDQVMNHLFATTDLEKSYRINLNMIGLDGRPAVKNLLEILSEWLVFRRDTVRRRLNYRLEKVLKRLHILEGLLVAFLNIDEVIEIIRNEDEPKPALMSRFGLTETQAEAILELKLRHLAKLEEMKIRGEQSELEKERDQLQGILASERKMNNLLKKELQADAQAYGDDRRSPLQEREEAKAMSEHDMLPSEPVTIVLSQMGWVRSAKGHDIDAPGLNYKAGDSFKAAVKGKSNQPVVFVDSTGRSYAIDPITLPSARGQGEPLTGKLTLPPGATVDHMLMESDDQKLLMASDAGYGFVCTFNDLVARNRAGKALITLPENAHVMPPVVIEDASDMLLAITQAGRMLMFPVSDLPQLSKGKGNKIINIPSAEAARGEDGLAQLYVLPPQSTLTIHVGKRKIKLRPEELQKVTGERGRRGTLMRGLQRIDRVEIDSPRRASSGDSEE
T2 sequence (P0AES4 whole entry, one chain of several): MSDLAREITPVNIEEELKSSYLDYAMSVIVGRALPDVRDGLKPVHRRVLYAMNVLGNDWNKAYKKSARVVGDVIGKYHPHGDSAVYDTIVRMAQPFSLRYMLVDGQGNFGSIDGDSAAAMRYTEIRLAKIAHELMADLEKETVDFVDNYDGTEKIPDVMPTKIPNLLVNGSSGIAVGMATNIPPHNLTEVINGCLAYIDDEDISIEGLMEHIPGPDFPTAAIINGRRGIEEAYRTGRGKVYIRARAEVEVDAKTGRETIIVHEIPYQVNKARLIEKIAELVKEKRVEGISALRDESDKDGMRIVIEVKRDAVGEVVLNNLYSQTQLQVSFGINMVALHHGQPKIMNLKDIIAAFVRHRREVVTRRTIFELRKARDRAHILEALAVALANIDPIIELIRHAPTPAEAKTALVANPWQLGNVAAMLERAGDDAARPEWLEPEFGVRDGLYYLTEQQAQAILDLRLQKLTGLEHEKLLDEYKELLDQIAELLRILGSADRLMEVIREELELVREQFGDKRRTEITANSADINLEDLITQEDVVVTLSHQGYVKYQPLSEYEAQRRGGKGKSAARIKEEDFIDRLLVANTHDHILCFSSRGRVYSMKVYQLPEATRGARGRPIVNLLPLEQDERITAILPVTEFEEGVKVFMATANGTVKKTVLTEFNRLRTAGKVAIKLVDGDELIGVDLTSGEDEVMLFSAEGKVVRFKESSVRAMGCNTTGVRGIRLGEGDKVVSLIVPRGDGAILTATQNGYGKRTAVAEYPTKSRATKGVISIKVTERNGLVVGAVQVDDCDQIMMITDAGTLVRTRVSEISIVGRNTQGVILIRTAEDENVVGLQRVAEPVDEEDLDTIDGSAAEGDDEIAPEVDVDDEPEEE

Row | Compound | MIC (S. aureus 29213) [µg/mL] | MIC (E. coli MC4100) [µg/mL] | MIC (E. coli B90) [µg/mL] | MIC (S. pyogenes C203) [µg/mL] | MIC (E. coli Tol C) [µg/mL] | IC50 (E. coli Topoisomerase IV) [µM] | IC50 (E. coli gyrase) [µM] | MIC (B. subtilis RB1) [µg/mL] | Minimum Inhibitory Concentrations S. aureus 29213 (S. aureus 29213) [µg/mL] | Minimum Inhibitory Concentrations E. coli MC4100 (E. coli MC4100) [µg/mL] | Minimum Inhibitory Concentrations E. coli B90 (E. coli B90) [µg/mL] | Minimum Inhibitory Concentrations S. pyogenes C203 (S. pyogenes C203) [µg/mL] | Minimum Inhibitory Concentrations E. coli Tol C (E. coli Tol C) [µg/mL]
1 | O=c1c2cc(F)c(N3CCCC3)cc2n(-c2cccc(F)c2)c(=O)n1O [Example 28, 1-(3-Fluorophenyl)-6-fluoro-3-hydroxy-7-pyrrolidin-1-yl-1H-quinazoline-2,4-dione] | 32 (≈ 89.1 µM) | > 64 | 2 (≈ 5.57 µM) | 32 (≈ 89.1 µM) | 2 (≈ 5.57 µM) |  |  |  |  |  |  |  | 
2 | O=c1c2cc(F)c(N3CCCC3)nc2n(C2CC2)c(=O)n1O [Example 32, 1-Cyclopropyl-6-fluoro-3-hydroxy-7-pyrrolidin-1-yl-1H-pyrido[2,3-d]pyrimidine-2,4-dione] | 8 (≈ 26.1 µM) | > 64 | 0.5 (≈ 1.63 µM) | 64 (≈ 209 µM) | 0.5 (≈ 1.63 µM) | > 100 | 6.4 |  |  |  |  |  | 
3 | CCn1c(=O)n(O)c(=O)c2cc(F)c(N3CCC(N)C3)nc21.O=C(O)C(F)(F)F (stereo not shown) [Example 36, 7-(3-Aminopyrrolidin-1-yl)-1-ethyl-6-fluoro-3-hydroxy-1H-pyrido[2,3-d]pyrimidine-2,4-dione, trifluoroacetate] | 64 | 8 | 2 | 32 | 2 |  |  |  |  |  |  |  | 
4 | O=c1c2cc(F)c(N3CCCC3)cc2n(C2CC2)c(=O)n1O [Example 38, 1-Cyclopropyl-6-fluoro-3-hydroxy-7-(pyrrolidin-1-yl)-1H-quinazoline-2,4-dione] | 1 (≈ 3.28 µM) | 8 (≈ 26.2 µM) | 0.1 (≈ 0.328 µM) | 16 (≈ 52.4 µM) | 0.1 (≈ 0.328 µM) | 57 | 6.6 | 0.25 (≈ 0.819 µM) |  |  |  |  | 
5 | NC1CCN(c2cc3c(cc2F)c(=O)n(O)c(=O)n3C2CC2)C1 (stereo not shown) [Example 39, 7-(3-Amino-pyrrolidin-1-yl)-1-cyclopropyl-6-fluoro-3-hydroxy-1H-quinazoline-2,4-dione] | 32 (≈ 99.9 µM) | 1 (≈ 3.12 µM) | 0.3 (≈ 0.937 µM) | 4 (≈ 12.5 µM) | 0.25 (≈ 0.78 µM) | 9 | 2.4 | 2 (≈ 6.24 µM) |  |  |  |  | 
6 | N[C@@H]1[C@H]2CN(c3cc4c(cc3F)c(=O)n(O)c(=O)n4C3CC3)C[C@@H]12.O=C(O)C(F)(F)F [Example 42, (1α, 5α, 6α)7-(6-Amino-3-aza-bicyclo[3.1.0]hex-3-yl)-1-cyclopropyl-6-fluoro-3-hydroxy-1H-quinazoline-2,4-dione, trifluoroacetate] |  |  |  |  |  | 28 | 0.76 |  | 4.0 | 1.0 | 0.25 | 2.0 | 0.25
7 | O=c1c2cc(F)c(N3CCCC3)c3c2n(c(=O)n1O)CCS3 [Example 44, 8-Fluoro-5-hydroxy-9-pyrrolidin-1-yl-2,3-dihydro-1-thia-3α,5-diaza-phenalene-4,6-dione] | 4 (≈ 12.4 µM) | > 64 | 1 (≈ 3.09 µM) | 32 (≈ 99 µM) | 1 (≈ 3.09 µM) | > 100 | 12 |  |  |  |  |  | 
8 | NC1C2CN(c3c(F)cc4c(=O)n(O)c(=O)n5c4c3SCC5)CC12.O=C(O)C(F)(F)F (stereo not drawn) [Example 46, (1α,5α,6α)9-(6-Amino-3-aza-bicyclo[3.1.0]hex-3-yl)-8-fluoro-5-hydroxy-2,3-dihydro-1-thia-3α,5-diaza-phenalene-4,6-dione, trifluoroacetate] |  |  |  |  |  |  | 8.3 |  | >64 | 8.0 | 2.0 | 32 | 1.0
9 | O=c1c2cc(F)c(N3CCCC3)nc2n(-c2ccc(F)cc2)c(=O)n1O [Example 56, 6-Fluoro-1-(4-fluorophenyl)-3-hydroxy-7-pyrrolidin-1-yl-1H-pyrido[2,3-d]pyrimidine-2,4-dione] | 8 (≈ 22.2 µM) | 16 (≈ 44.4 µM) | 0.13 (≈ 0.361 µM) | 8 (≈ 22.2 µM) | 0.13 (≈ 0.361 µM) |  |  |  |  |  |  |  | 
